Like-named read-outs stand apart in the source and are kept apart here.
What was measured:
[1] = target: Beta Secretase enzyme (BACE) (Homo sapiens (Human), UniProt P56817); test: In vitro enzymatic BACE FRET assay; assay type: biochemical; settings: read-out: BACE 1 FRET assay IC50
Method in brief: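 A quenched fluorophore-peptide spanning the BACE cleavage site served as substrate at 50 nM, with one-hour incubation in pH 4.2 acetate buffer containing 100 uM genapol and 10% DMSO final. Fluorescence was measured after quenching with Tris to neutral pH.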

[2] = tested on: Aβ40 in conditioned medium of cells stably expressing Amyloid Precursor Protein (APP); test: In vitro BACE cell-based assay (Aβ40 sandwich ELISA); settings: Homo sapiens
Method in brief: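 Aβ40 in supernatants was measured by time-resolved fluorescence sandwich ELISA using pAb40 capture and biotinylated 6E10 detection, with antibody incubations at 4 °C. Stable APP cells were exposed to compounds for 24 h in a 10-point series (top dose 100 or 10 µM, 0.1% DMSO). IC50 was fitted from the concentration-response.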

Cathepsin D (Cat D) = Cathepsin D (Cat D) (Homo sapiens (Human), UniProt P07339); test: In vitro enzymatic Cathepsin D (Cat D) FRET assay; assay type: biochemical; settings: read-out: CatD IC50
Cathepsin D (Cat D), sequence (P07339 65-412, species assumed): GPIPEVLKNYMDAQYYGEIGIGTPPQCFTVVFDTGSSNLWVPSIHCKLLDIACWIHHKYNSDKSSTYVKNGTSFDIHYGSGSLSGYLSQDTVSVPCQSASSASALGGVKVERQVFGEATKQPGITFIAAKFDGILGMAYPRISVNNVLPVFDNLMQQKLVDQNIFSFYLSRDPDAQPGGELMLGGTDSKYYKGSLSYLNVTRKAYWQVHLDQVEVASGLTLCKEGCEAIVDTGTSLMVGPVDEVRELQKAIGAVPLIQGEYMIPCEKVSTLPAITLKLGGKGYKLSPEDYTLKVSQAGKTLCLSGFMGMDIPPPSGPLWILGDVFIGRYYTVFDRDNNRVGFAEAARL
Method in brief: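 CHO-expressed recombinant Cat D cleaves a fluorophore/quencher FRET peptide (20 nM) in 0.05 M citrate pH 3.5, 5 mM CHAPS, 10% DMSO final, over 1 h. Tris addition neutralizes pH to stop the reaction; fluorescence read at excitation 500 nm, emission 580 nm.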

[3] = HEK293, average IC50, HEK cells, read-out: HEK cell assay IC50
[4] = average IC50, BACE enzyme assay
[5] = HEK293, average IC50, HEK cell assay, read-out: HEK cell assay IC50
[6] = average IC50, cathepsin D enzyme assay
[7] = HEK293, HEK cells, average, read-out: HEK cell assay IC50

Beta Secretase enzyme (BACE), sequence (P56817 46-501): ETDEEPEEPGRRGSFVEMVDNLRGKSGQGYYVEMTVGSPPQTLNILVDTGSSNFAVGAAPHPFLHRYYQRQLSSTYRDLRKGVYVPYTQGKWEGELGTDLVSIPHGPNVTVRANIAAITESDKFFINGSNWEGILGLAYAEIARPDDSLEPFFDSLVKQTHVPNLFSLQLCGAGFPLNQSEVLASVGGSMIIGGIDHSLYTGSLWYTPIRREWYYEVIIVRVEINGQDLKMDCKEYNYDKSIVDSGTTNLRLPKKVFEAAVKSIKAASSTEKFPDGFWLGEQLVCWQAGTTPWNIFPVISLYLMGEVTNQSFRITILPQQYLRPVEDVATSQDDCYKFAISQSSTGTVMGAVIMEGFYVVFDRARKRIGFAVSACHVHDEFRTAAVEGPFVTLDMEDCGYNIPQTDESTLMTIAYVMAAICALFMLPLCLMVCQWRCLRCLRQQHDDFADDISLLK

## Cc1cc(C#N)cnc1C(=O)Nc1cnc(F)c([C@]2(C)C[C@@H](C(F)(F)F)OC(N)=N2)c1 [Example 67, N-(5-((4S,6S)-2-amino-4-methyl-6-(trifluoromethyl)-5,6-dihydro-4H-1,3-oxazin-4-yl)-6-fluoropyridin-3-yl)-5-cyano-3-methylpicolinamide]
[1]; average IC50
  IC50: 0.0348 µM
[2]; [3]
  IC50: 0.023 µM
Cathepsin D (Cat D); average IC50
  IC50: > 400 µM

## COc1cc(Cl)cnc1C(=O)Nc1ccc(F)c([C@]2(CF)C[C@@H](C(F)(F)F)OC(N)=N2)c1 [Example 47]
[1]; average IC50
  IC50: 0.0564 µM
[2]; [3]
  IC50: 0.0679 µM
Cathepsin D (Cat D); average IC50
  IC50: > 400 µM

## COc1cnc2c(Nc3ccc(F)c([C@]4(CF)C[C@@H](C(F)(F)F)OC(N)=N4)c3)nccc2n1 (racemic) [Example 9, (4S,6S)-4-(2-fluoro-5-((2-methoxypyrido[3,4-b]pyrazin-5-yl)amino)phenyl)-4-(fluoromethyl)-6-(trifluoromethyl)-5,6-dihydro-4H-1,3-oxazin-2-amine]
[1]; average IC50
  IC50: 0.05 µM
[2]; [3]
  IC50: 0.372 µM
Cathepsin D (Cat D); average IC50
  IC50: > 400 µM

## NC1=N[C@](CF)(c2cc(NC(=O)c3ncc(Cl)cc3F)ccc2F)C[C@@H](C(F)(F)F)O1 [Example 34, N-(3-((4S,6S)-2-amino-4-(fluoromethyl)-6-(trifluoromethyl)-5,6-dihydro-4H-1,3-oxazin-4-yl)-4-fluorophenyl)-5-chloro-3-fluoropicolinamide]
[1]; [4]
  IC50: 0.051 µM
[2]; [5]
  IC50: 0.042 µM
Cathepsin D (Cat D); [6]
  IC50: > 400 µM

## NC1=N[C@](CF)(c2cc(Oc3cc(Br)cc(Cl)n3)ccc2F)C[C@@H](C(F)(F)F)O1 [Example 98]
[1]; average IC50
  IC50: 1.95 µM
[2]; [3]
  IC50: 2.9 µM
Cathepsin D (Cat D); average IC50
  IC50: > 400 µM

## COc1cc(Cl)cnc1C(=O)Nc1cc(F)c(F)c([C@]2(C)C[C@@H](C(F)(F)F)OC(N)=N2)c1 [Example 195, N-(3-((4S,6S)-2-amino-4-methyl-6-(trifluoromethyl)-5,6-dihydro-4H-1,3-oxazin-4-yl)-4,5-difluorophenyl)-5-chloro-3-methoxypicolinamide]
[1]; average
  IC50: 0.071 µM
[2]; [7]
  IC50: 0.011 µM
Cathepsin D (Cat D); average
  IC50: > 400 µM

## CC#CCOc1ccc(C(=O)Nc2cc(F)c(F)c([C@]3(C)C[C@@H](C(F)(F)F)OC(N)=N3)c2)nc1 [Example 189, N-(3-((4S,6S)-2-amino-4-methyl-6-(trifluoromethyl)-5,6-dihydro-4H-1,3-oxazin-4-yl)-4,5-difluorophenyl)-5-(but-2-yn-1-yloxy)picolinamide]
[1]; average
  IC50: 0.003 µM
[2]; [7]
  IC50: 0.003 µM
Cathepsin D (Cat D); average
  IC50: 784 µM

## Cc1cc(Nc2ncnc3cc(Cl)cnc23)cc([C@]2(CF)C[C@@H](C(F)(F)F)OC(N)=N2)c1F [Example 230, (4S,6S)-4-(5-((7-chloropyrido[3,2-d]pyrimidin-4-yl)amino)-2-fluoro-3-methylphenyl)-4-(fluoromethyl)-6-(trifluoromethyl)-5,6-dihydro-4H-1,3-oxazin-2-amine]
[1]; average
  IC50: 0.049 µM
[2]; [7]
  IC50: 0.057 µM
Cathepsin D (Cat D); average
  IC50: > 400 µM

## NC1=N[C@](CF)(c2cc(Nc3nccc4cc(C#CC5CC5)cnc34)ccc2F)C[C@@H](C(F)(F)F)O1 [Example 55, (4S,6S)-4-(5-((3-(cyclopropylethynyl)-1,7-naphthyridin-8-yl)amino)-2-fluorophenyl)-4-(fluoromethyl)-6-(trifluoromethyl)-5,6-dihydro-4H-1,3-oxazin-2-amine]
[1]; [4]
  IC50: 0.098 µM
[2]; [5]
  IC50: 1.02 µM
Cathepsin D (Cat D); [6]
  IC50: > 400 µM

## N#Cc1ccc(C(=O)Nc2ccc(F)c([C@]3(CF)C[C@@H](C(F)(F)F)OC(N)=N3)n2)nc1 [Example 134, N-(6-((4S,6S)-2-amino-4-(fluoromethyl)-6-(trifluoromethyl)-5,6-dihydro-4H-1,3-oxazin-4-yl)-5-fluoropyridin-2-yl)-5-cyanopicolinamide]
[1]; [4]
  IC50: 0.079 µM
[2]; [5]
  IC50: 0.055 µM
Cathepsin D (Cat D); [6]
  IC50: > 400 µM

## Cc1cc(C#N)cnc1C(=O)Nc1cc(F)c(F)c([C@]2(CF)C[C@@H](C(F)(F)F)OC(N)=N2)c1 [Example 232, N-(3-((4S,6S)-2-amino-4-(fluoromethyl)-6-(trifluoromethyl)-5,6-dihydro-4H-1,3-oxazin-4-yl)-4,5-difluorophenyl)-5-cyano-3-methylpicolinamide]
[1]; average
  IC50: 0.016 µM
[2]; [7]
  IC50: 0.055 µM
Cathepsin D (Cat D); average
  IC50: 568 µM

## NC1=N[C@](CF)(c2cc(-c3ccc4cc(F)ccc4n3)ccc2F)C[C@@H](C(F)(F)F)O1 [Example 116, (4S,6S)-4-(2-fluoro-5-(6-fluoroquinolin-2-yl)phenyl)-4-(fluoromethyl)-6-(trifluoromethyl)-5,6-dihydro-4H-1,3-oxazin-2-amine]
[1]; [4]
  IC50: > 40 µM
[2]; [5]
  IC50: > 15.6 µM
Cathepsin D (Cat D); [6]
  IC50: > 133 µM

## NC1=N[C@](CF)(c2cc(Oc3cc(-c4ccccc4)cc(Cl)n3)ccc2F)C[C@@H](C(F)(F)F)O1 [Example 235, (4S,6S)-4-(5-((6-chloro-4-phenylpyridin-2-yl)oxy)-2-fluorophenyl)-4-(fluoromethyl)-6-(trifluoromethyl)-5,6-dihydro-4H-1,3-oxazin-2-amine]
[1]; average
  IC50: > 40 µM
[2]; [7]
  IC50: 8.17 µM
Cathepsin D (Cat D); average
  IC50: > 133 µM

## C[C@@]1(c2nc(NC(=O)c3ccc(Cl)cn3)ccc2F)C[C@@H](C(F)(F)F)OC(N)=N1 [Example 83, N-(6-((4S,6S)-2-amino-4-methyl-6-(trifluoromethyl)-5,6-dihydro-4H-1,3-oxazin-4-yl)-5-fluoropyridin-2-yl)-5-chloropicolinamide]
[1]; average IC50
  IC50: 0.103 µM
[2]; [3]
  IC50: 0.0389 µM
Cathepsin D (Cat D); average IC50
  IC50: > 400 µM

## COc1ncc(NC(=O)c2ccc(Cl)cn2)cc1[C@]1(C)C[C@@H](C(F)(F)F)OC(N)=N1 [Example 147, N-(5-((4S,6S)-2-amino-4-methyl-6-(trifluoromethyl)-5,6-dihydro-4H-1,3-oxazin-4-yl)-6-methoxypyridin-3-yl)-5-chloropicolinamide]
[1]; average IC50
  IC50: 0.249 µM
[2]; [3]
  IC50: 0.119 µM
Cathepsin D (Cat D); average IC50
  IC50: 1420 µM

## COc1cccnc1Nc1cc(F)c(F)c([C@]2(C)C[C@@H](C(F)(F)F)OC(N)=N2)c1 [Example 231, (4S,6S)-4-(2,3-difluoro-5-((3-methoxypyridin-2-yl)amino)phenyl)-4-methyl-6-(trifluoromethyl)-5,6-dihydro-4H-1,3-oxazin-2-amine]
[1]; average
  IC50: 0.177 µM
[2]; [7]
  IC50: 0.162 µM
Cathepsin D (Cat D); average
  IC50: 282 µM

## C[C@@]1(c2cc(NC(=O)c3ccc(OCC(F)(F)F)cn3)cnc2F)C[C@@H](C(F)(F)F)OC(N)=N1 [Example 65, N-(5-((4S,6S)-2-amino-4-methyl-6-(trifluoromethyl)-5,6-dihydro-4H-1,3-oxazin-4-yl)-6-fluoropyridin-3-yl)-5-(2,2,2-trifluoroethoxy)picolinamide]
[1]; [4]
  IC50: 0.079 µM
[2]; [5]
  IC50: 0.124 µM
Cathepsin D (Cat D); [6]
  IC50: 150 µM

## N#Cc1cnc(C(=O)Nc2cc(F)c(F)c([C@]3(CF)C[C@@H](C(F)(F)F)OC(N)=N3)c2)c(F)c1 [Example 234, N-(3-((4S,6S)-2-amino-4-(fluoromethyl)-6-(trifluoromethyl)-5,6-dihydro-4H-1,3-oxazin-4-yl)-4,5-difluorophenyl)-5-cyano-3-fluoropicolinamide]
[1]; average
  IC50: 0.038 µM
[2]; HEK293, read-out: HEK cell assay IC50
  IC50: 0.057 µM
Cathepsin D (Cat D); average
  IC50: > 400 µM

## C#CCOc1cnc(C(=O)Nc2cc(Cl)c(F)c([C@]3(C)C[C@@H](C(F)(F)F)OC(N)=N3)c2)cn1 [Example 212, N-(3-((4S,6S)-2-amino-4-methyl-6-(trifluoromethyl)-5,6-dihydro-4H-1,3-oxazin-4-yl)-5-chloro-4-fluorophenyl)-5-(prop-2-yn-1-yloxy)pyrazine-2-carboxamide]
[1]; average
  IC50: < 0.002 µM
[2]; [7]
  IC50: 0.001 µM
Cathepsin D (Cat D); average
  IC50: 554 µM

## NC1=N[C@](CF)(c2cc(NC(=O)c3ncc(C(F)F)cc3Cl)ccc2F)C[C@@H](C(F)(F)F)O1 [Example 40, N-(3-((4S,6S)-2-amino-4-(fluoromethyl)-6-(trifluoromethyl)-5,6-dihydro-4H-1,3-oxazin-4-yl)-4-fluorophenyl)-3-chloro-5-(difluoromethyl)picolinamide]
[1]; [4]
  IC50: 0.13 µM
[2]; [5]
  IC50: 0.105 µM
Cathepsin D (Cat D); [6]
  IC50: > 400 µM

## NC1=N[C@](CF)(c2cc(C(=O)NC3CC3)ccc2F)C[C@@H](C(F)(F)F)O1 [Example 182, 3-((4S,6S)-2-amino-4-(fluoromethyl)-6-(trifluoromethyl)-5,6-dihydro-4H-1,3-oxazin-4-yl)-N-cyclopropyl-4-fluorobenzamide]
[1]; [4]
  IC50: 11.4 µM
[2]; [5]
  IC50: > 15.6 µM
Cathepsin D (Cat D); [6]
  IC50: 3490 µM

## NC1=N[C@](CF)(c2cc(C#Cc3cccc4[nH]ccc34)ccc2F)C[C@@H](C(F)(F)F)O1 [Example 130, (4S,6S)-4-(5-((1H-indol-4-yl)ethynyl)-2-fluorophenyl)-4-(fluoromethyl)-6-(trifluoromethyl)-5,6-dihydro-4H-1,3-oxazin-2-amine]
[1]; average
  IC50: 5.62 µM
[2]; [7]
  IC50: 2.08 µM
Cathepsin D (Cat D); average
  IC50: 578 µM

## C[C@@]1(c2cc(NC(=O)c3ccc(Br)cn3)cc(Cl)c2F)C[C@@H](C(F)(F)F)OC(N)=N1 [Example 213, N-(3-((4S,6S)-2-amino-4-methyl-6-(trifluoromethyl)-5,6-dihydro-4H-1,3-oxazin-4-yl)-5-chloro-4-fluorophenyl)-5-bromopicolinamide]
[1]; average
  IC50: 0.01 µM
[2]; [7]
  IC50: 0.0319 µM
Cathepsin D (Cat D); average
  IC50: 739 µM

Reference: patent publication US9296734B2 (AMGEN INC., priority 2013, dated 2016)
